Source: EP0974573A1, “PHENYLPROPENONE COMPOUNDS AND MEDICINES CONTAINING THE SAME” (Kabushiki Kaisha Yakult Honsha, priority 1997, dated 1998)

What was measured:
[1] = tested on: J774.1 strain, an established cell line of mouse macrophage; assay: Inhibitory effects on the accumulation of cholesterol esters in macrophage (Test 2); format: cell-based; conditions: J774.1 mouse macrophage, 12 hours incubation with cholesterol liposomes
Protocol: Inhibitory effects on the accumulation of cholesterol esters in macrophage were tested using J774.1 strain, an established cell line of mouse macrophage.
Metabolism of LDL in endothelial cells or smooth muscle cells causes downregulation of the LDL receptor by excess free cholesterol in the cells, but in a macrophage, uptake of modified lDL takes place via a scavenger receptor. As no regulation is applied to this pathway, cholesterol esters progressively accumulate without any limitation.
It was therefore studied whether or not corydaline would inhibit intracellular accumulation of cholesterol esters by having liposomes, which were formed of […] cholesterol and phosphatidylcholine, uptaken in macrophage cells and then causing them to act on acyl-CoA:cholesterol acyltransferase which existed on rough-surfaced endoplasmic reticula.
The macrophage cells were incubated for 2 days under 5% CO2 on an RPMI 1640 medium (product of NISSUI PHARMACEUTICAL CO., LTD.) which had been added with 10% fetal bovine serum, penicilin (50 U/mℓ) and streptomycin (50 µg/mℓ). Trypsinization was then conducted, and cells attached to the bottom of each well were peeled off and formulated into a cell suspension. The cells were washed with a fresh supply of the above-described culture medium, and the cell solution was then seeded at 2 x 10^6 cells/mℓ on a 24-well multiple well plate ("25820-24", product of CORNING INC.). After incubation at 37°C under 5% CO2 for 37 hours, the culture medium was replaced with a fresh supply of the above-described culture medium and, after a 0.3 M glucose solution (40 µℓ) with cholesterol [80 µg; containing 0.4 µCi of (^3H)-cholesterol] and phosphatidylcholine (160 µg) contained therein and a methanol solution (10 µℓ)with a test sample dissolved therein were added, incubation was conducted for 12 hours. These procedures were carried out aseptically.
After completion of the incubation, cells attached to each bottom were washed 5 times with a serum-free RPMI 1640 medium by a graduated pipet, and isopropanol (1 mℓ) was added to extract intracellular cholesterol and formed cholesterol esters. The extract was coated in its entirety on a silica gel thin layer chromatography ("Art 5553", product of MERCK & Co., INC.) and subsequent to development with a 80:20:2 mixture of hexane, ethyl ether and formic acid, autoradiography was performed.
A section, which contained ^3H-labelled cholesterol esters and cholesterol, was cut off. Its radioactivity was measured by a liquid scintillation counter and compared with a control, whereby a cholesterol ester accumulation inhibition rate was determined.

rat-derived ACAT = assay: Inhibitory effects on rat-derived ACAT (Test 1); format: biochemical; conditions: crude enzyme from microsome protein fractions of rat liver, (14C)-oleoyl-CoA substrate, 37°C
Protocol: To test effects on ACAT, a reaction was conducted in vitro to form (^14C)-cholesteryl oleate from endogeneous cholesterol in the presence of (^14C)-oleoyl-CoA as a substrate by using a crude enzyme prepared from microzome protein fractions of a rat liver.
The reaction mixture had the following composition: 20 µℓ of microsome protein (1.83 mg/mℓ), 20 µℓ of (^14C)-oleoyl-CoA (5 µCi/mℓ, BSA: 96 nmol/mℓ), 106 µℓ of 100 mM phosphate buffer (containing 5 mM of dithiothreitol, pH 7.4) and a sample dissolved in 4 µℓ of methanol or dimethyl sulfoxide; 150 µℓ in total.
The reaction was conducted at 37°C. After an elapse of a predetermined reaction time (18 minutes in general), a 2:1 mixture of chloroform and methanol (5.65 mℓ) was added to terminate the reaction. A 0.04 N aquous solution of hydrochloric acid (0.98 mℓ) and as a carrier, cholesteryl oleate were added, followed by extraction for 20 minutes on a shaking apparatus. The mixture was then allowed to stand overnight in a cold dark place. On the following day, the separated lower chloroform layer was extracted in its entirety and was dried under a nitrogen gas stream. The remaining upper layer was added with the lower layer (5.65 mℓ) of the Folch's partition solution, and was extracted again. After the mixture was allowed to stand overnight in a dark place, the lower layer was drawn in its entirety. This lower layer was combined with the lower chloroform layer fraction, which had already been dried to solid, and the mixture was then dried to solid.
The solid was then dissolved in chlorofrom (200 µℓ), and the solution was coated in its entirety on a G60 plate (aluminum sheet) for silica gel thin layer chromatography. After the solid was developedover 10 cm with a 10:190 mixture of diethyl ether and petroleum ether, autoradiography was conducted and the formation of (^14C)-colesteryl oleate was confirmed. This section was then cut off. The radioactivity of each sample was measured by subjecting it to liquid scintillation counting for 5 minutes in toluene or was measured for 30 minutes by a "Betascope" (manufactured by BETA-GEN INC. The results so obtained are shown in Table 1. Table 1

IC50 ([1]; Mus musculus, J774.1, 12 h) [nM] | IC50 (rat-derived ACAT) [nM] | Compound | IC50 [1] [nM]
31 | – | COc1cc(/C=C/C(=O)Nc2ccc(OC(C)C)cc2)cc(OC)c1OCc1ccccc1 [Compound 73, N-(4-isopropyloxyphenyl)-(2E)-3-(3,5-dimethoxy-4-benzyloxyphenyl)-2-propenamide] | –
170 | 35 | COc1ccc(NC(=O)/C=C/c2cc(OC)c(OCc3ccccc3)c(OC)c2)cc1 [Compound 72, N-(4-methoxyphenyl)-(2E)-3-(3,5-dimethoxy-4-benzyloxyphenyl)-2-propenamide] | –
46 | 47 | COc1cc(/C=C/C(=O)Nc2ccc(C)c(C)c2)cc(OC)c1OCc1ccccc1 [Compound 65, N-(3,4-dimethylphenyl)-(2E)-3-(3,5-dimethoxy-4-benzyloxyphenyl)-2-propenamide] | –
28 | – | COc1cc(/C=C/C(=O)Nc2ccc(C(C)(C)C)cc2)cc(OC)c1OCc1ccccc1 [Compound 69, N-(4-tert-butylphenyl)-(2E)-3-(3,5-dimethoxy-4-benzyloxyphenyl)-2-propenamide] | –
170 | 35 | COc1cc(/C=C/C(=O)Nc2ccc(Cl)cc2)cc(OC)c1OCc1ccccc1 [Compound 78, N-(4-chlorophenyl)-(2E)-3-(3,5-dimethoxy-4-benzyloxyphenyl)-2-propenamide] | –
470 | 76 | COc1cc(/C=C/C(=O)Nc2ccc(F)cc2)cc(OC)c1OCc1ccccc1 [Compound 77, N-(4-fluorophenyl)-(2E)-3-(3,5-dimethoxy-4-benzyloxyphenyl)-2-propenamide] | –
900 | 35 | COc1cc(/C=C/C(=O)Nc2cccc(C)c2C)cc(OC)c1OCc1ccccc1 [Compound 64, N-(2,3-dimethylphenyl)-(2E)-3-(3,5-dimethoxy-4-benzyloxyphenyl)-2-propenamide] | –
870 | – | COc1cc(/C=C/C(=O)NCCCc2ccccc2)cc(OC)c1OCc1ccccc1 [Compound 60, N-(3-phenyl)propyl-(2E)-3-(3,5-dimethoxy-4-benzyloxyphenyl)-2-propenamide] | –
520 | 52 | COc1cc(/C=C/C(=O)Nc2ccc(C)cc2C)cc(OC)c1OCc1ccccc1 [Compound 63, N-(2,4-dimethylphenyl)-(2E)-3-(3,5-dimethoxy-4-benzyloxyphenyl)-2-propenamide] | –
150 | – | COc1cc(/C=C/C(=O)Nc2ccc(Cl)c(Cl)c2)cc(OC)c1OCc1ccccc1 [Compound 81, N-(3,4-dichlorophenyl)-(2E)-3-(3,5-dimethoxy-4-benzyloxyphenyl)-2-propenamide] | –
840 | – | COc1cc(/C=C/C(=O)Nc2ccccc2C(C)(C)C)cc(OC)c1OCc1ccccc1 [Compound 70, N-(2-tert-butylphenyl)-(2E)-3-(3,5-dimethoxy-4-benzyloxyphenyl)-2-propenamide] | –

The next lines start with the compound.

Compound | IC50 ([1]; Mus musculus, J774.1, 12 h) [nM] | IC50 (rat-derived ACAT) [nM] | IC50 [1] [nM]
COc1cc(/C=C/C(=O)Nc2ccccc2)cc(OC)c1OCc1ccccc1 [Compound 76, N-phenyl-(2E)-3-(3,5-dimethoxy-4-benzyloxyphenyl)-2-propenamide] | 490 | – | –
COc1cc(/C=C/C(=O)Nc2c(C)cccc2C)cc(OC)c1OCc1ccccc1 [Compound 66, N-(2,6-dimethylphenyl)-(2E)-3-(3,5-dimethoxy-4-benzyloxyphenyl)-2-propenamide] | 900 | 47 | –
CCCCCCCCCCCCOc1c(OC)cc(/C=C/C(=O)NN2CCN(c3ccc(C)cc3C)CC2)cc1OC [Compound 19, N-[4-(2,4-dimethylphenyl)-1,4-diazacyclohexyl]-(2E)-3-(3,5-dimethoxy-4-dodecyloxyphenyl) -2-propenamide] | 250 | 70 | –
COc1cc(/C=C/C(=O)Nc2ccc(I)cc2)cc(OC)c1OCc1ccccc1 [Compound 80, N-(4-iodophenyl)-(2E)-3-(3,5-dimethoxy-4-benzyloxyphenyl)-2-propenamide] | 43 | – | –
COc1cc(/C=C/C(=O)Nc2ccc(Br)cc2)cc(OC)c1OCc1ccccc1 [Compound 79, N-(4-bromophenyl)-(2E)-3-(3,5-dimethoxy-4-benzyloxyphenyl)-2-propenamide] | 78 | – | –
COc1cc(/C=C/C(=O)NCc2ccccc2)cc(OC)c1OCc1ccccc1 [Compound 58, N-benzyl-(2E)-3-(3,5-dimethoxy-4-benzyloxyphenyl)-2-propenamide] | 930 | – | –
COc1cc(/C=C/C(=O)Nc2ccc(N(C)C)cc2)cc(OC)c1OCc1ccccc1 [Compound 74, N-[4-(N',N^'-dimethylamino)phenyl]-(2E)-3-(3,5-dimethoxy-4-benzyloxyphenyl)-2-propenamide] | – | 90 | 990
COc1cc(/C=C/C(=O)Nc2ccc(C(F)(F)F)cc2)cc(OC)c1OCc1ccccc1 [Compound 82, N-(4-trifluoromethylphenyl)-(2E)-3-(3,5-dimethoxy-4-benzyloxyphenyl)-2-propenamide] | 30 | 42 | –
COc1cc(/C=C/C(=O)Nc2cc(C(F)(F)F)cc(C(F)(F)F)c2)cc(OC)c1OCc1ccccc1 [Compound 83, N-(3,5-bistrifluoromethylphenyl)-(2E)-3-(3,5-dimethoxy-4-benzyloxyphenyl)-2-propenamide] | 430 | 60 | –
COc1cc(/C=C/C(=O)NC2CCN(Cc3ccccc3)CC2)cc(OC)c1OCc1ccccc1 [Compound 62, N-[4-(1-benzyl)piperidino]-(2E)-3-(3,5-dimethoxy-4-benzyloxyphenyl)-2-propenamide] | – | – | 840
COc1cc(/C=C/C(=O)Nc2ccc(Oc3ccccc3)cc2)cc(OC)c1OCc1ccccc1 [Compound 85, N-(4-phenoxyphenyl)-(2E)-3-(3,5-dimethoxy-4-benzyloxyphenyl)-2-propenamide] | 26 | – | –
N-[4-(2,4-dimethylphenyl)-1,4-diazacyclohexyl]-(2E)-3-[3,5-dimethoxy-4-(3-phenyl)propyloxy]-2-propenamide [Compound 23] | – | – | 32
COc1cc(/C=C/C(=O)Nc2c(C(C)C)cccc2C(C)C)cc(OC)c1OCc1ccccc1 [Compound 68, N-(2,6-diisopropylphenyl)-(2E)-3-(3,5-dimethoxy-4-benzyloxyphenyl)-2-propenamide] | 790 | 72 | –
CCCCCCOc1c(OC)cc(/C=C/C(=O)N2CCN(c3ccc(C)cc3C)CC2)cc1OC [Compound 13] | – | 79 | 200
COc1cc(/C=C/C(=O)NCCc2ccccc2)cc(OC)c1OCc1ccccc1 [Compound 59, N-(2-phenyl)ethyl-(2E)-3-(3,5-dimethoxy-4-benzyloxyphenyl)-2-propenamide] | 620 | – | –
COc1cc(/C=C/C(=O)NCCCCc2ccccc2)cc(OC)c1OCc1ccccc1 [Compound 61, N-(4-phenyl)butyl-(2E)-3-(3,5-dimethoxy-4-benzyloxyphenyl)-2-propenamide] | 840 | – | –
COc1cc(/C=C/C(=O)Nc2c(C)cc(C)cc2C)cc(OC)c1OCc1ccccc1 [Compound 67, N-(2,4,6-trimethylphenyl)-(2E)-3-(3,5-dimethoxy-4-benzyloxyphenyl)-2-propenamide] | 870 | – | –
